Results from patent US12472272B2, “Radiolabelled compounds for diagnosis or treatment of prostate-specific membrane antigen- expressing cancer” (PROVINCIAL HEALTH SERVICES AUTHORITY, priority 2019, dated 2025).

Test system: PSMA-expressing cancer xenografts (LNCaP)
Assay: Biodistribution of ^177Lu-labeled HTK03041
Format: in vivo, mice
Details: for Tissue (% ID/g): Adrenal glands / Tissue (% ID/g): Blood / Tissue (% ID/g): Bone / Tissue (% ID/g): Brain / Tissue (% ID/g): Fat / Tissue (% ID/g): Heart / Tissue (% ID/g): Intestine / Tissue (% ID/g): Kidneys / Tissue (% ID/g): Lacrimal / Tissue (% ID/g): Liver / Tissue (% ID/g): Lungs / Tissue (% ID/g): Muscle / Tissue (% ID/g): Pancreas / Tissue (% ID/g): Salivary / Tissue (% ID/g): Seminal / Tissue (% ID/g): Spleen / Tissue (% ID/g): Stomach / Tissue (% ID/g): Tail / Tissue (% ID/g): Testes / Tissue (% ID/g): Thyroid / Tissue (% ID/g): Tumor / Tissue (% ID/g): Urine / tumor-to-background contrast ratio Tumor: Blood / tumor-to-background contrast ratio Tumor: Muscle / tumor-to-background contrast ratio Tumor: kidney: ^177Lu
Method: Imaging and biodistribution experiments were performed using NODSCID 1L2RγKO male mice. Mice were anesthetized by inhalation with 2% isoflurane in oxygen, and implanted subcutaneously with 1×10^7 LNCaP cells behind left shoulder. Mice were imaged or used in biodistribution studies when the tumor grew up to reach 5-8 mm in diameter during 5-6 weeks.
SPECT/CT imaging experiments were conducted using the MlLabs (Utrecht, the Netherlands) U-SPECT-II/CT scanner. Each tumor bearing mouse was injected with ˜37 MBq of ^177Lu-labeled HTK03041 through the tail vein under anesthesia (2% isoflurane in oxygen). The mice were allowed to recover and roam freely in their cage and imaged at 1, 4, 24, 72 and 120 hours after injection. At each time point, the mice were sedated again and positioned in the scanner. A 5-min CT scan was conducted first for anatomical reference with a voltage setting at 60 kV and current at 615 μA followed by a 60-min static emission scan acquired in list mode using an ultra-high resolution multi-pinhole rat-mouse (1 mm pinhole size) collimator. Data were reconstructed using the U-SPECT II software with a 20% window width on three energy windows. The photopeak window was centered at 208 keV, with lower scatter and upper scatter windows centered at 170 and 255 keV, respectively. Reconstruction parameters used maximum-likelihood expectation maximization (3 iterations), pixel-based ordered subset expectation maximization (16 subsets), and a post-processing filter (Gaussian blurring) of 0.5 mm. Images were decay corrected to injection time in PMOD (PMOD Technologies, Switzerland) then converted to DICOM for qualitative visualization in Inveon Research Workplace (Siemens Medical Solutions USA, Inc.).
For biodistribution studies, the mice were injected with the radiotracer as described above. At predetermined time points (1 or 3 h for ^68Ga studies; 1, 4, 24, 72, or 120 h for ^177Lu studies), the mice was anesthetized with 2% isoflurane inhalation, and euthanized by CO2 inhalation. Blood was withdrawn immediately from the heart, and the organs/tissues of interest were collected. The collected organs/tissues were weighed and counted using a Perkin Elmer (Waltham, MA) Wizard2 2480 gamma counter. The uptake in each organ/tissue was normalized to the injected dose using a standard curve, and expressed as the percentage of the injected dose per gram of tissue (% ID/g).

O=C([O-])CN1CCN(CC(=O)[O-])CCN(CC(=O)NC[C@H]2CC[C@H](C(=O)N[C@@H](Cc3c4ccccc4cc4ccccc34)C(=O)NCCCC[C@H](NC(=O)N[C@@H](CCC(=O)O)C(=O)O)C(=O)O)CC2)CCN(CC(=O)[O-])CC1.[177Lu+3] [^177Lu-HTK03041]
peaked tumor uptake (LNCaP tumor-bearing mice): ~20 % ID/g
Tissue (% ID/g): Adrenal glands (1 h post-injection): 5.53 ± 1.90 % ID/g
Tissue (% ID/g): Blood (1 h post-injection): 0.84 ± 0.15 % ID/g
Tissue (% ID/g): Bone (1 h post-injection): 0.29 ± 0.07 % ID/g
Tissue (% ID/g): Brain (1 h post-injection): 0.04 ± 0.01 % ID/g
Tissue (% ID/g): Fat (1 h post-injection): 1.09 ± 0.20 % ID/g
Tissue (% ID/g): Heart (1 h post-injection): 2.44 ± 0.43 % ID/g
Tissue (% ID/g): Intestine (1 h post-injection): 1.25 ± 0.15 % ID/g
Tissue (% ID/g): Kidneys (1 h post-injection): 98.6 ± 9.27 % ID/g
Tissue (% ID/g): Lacrimal (1 h post-injection): 0.03 ± 0.04 % ID/g
Tissue (% ID/g): Liver (1 h post-injection): 1.91 ± 0.38 % ID/g
Tissue (% ID/g): Lungs (1 h post-injection): 4.41 ± 0.49 % ID/g
Tissue (% ID/g): Muscle (1 h post-injection): 0.94 ± 0.20 % ID/g
Tissue (% ID/g): Pancreas (1 h post-injection): 1.61 ± 0.24 % ID/g
Tissue (% ID/g): Salivary (1 h post-injection): 5.88 ± 0.82 % ID/g
Tissue (% ID/g): Seminal (1 h post-injection): 1.22 ± 0.85 % ID/g
Tissue (% ID/g): Spleen (1 h post-injection): 8.80 ± 2.53 % ID/g
Tissue (% ID/g): Stomach (1 h post-injection): 0.47 ± 0.18 % ID/g
Tissue (% ID/g): Tail (1 h post-injection): 3.41 ± 3.03 % ID/g
Tissue (% ID/g): Testes (1 h post-injection): 1.01 ± 0.17 % ID/g
Tissue (% ID/g): Thyroid (1 h post-injection): 3.38 ± 0.44 % ID/g
Tissue (% ID/g): Tumor (1 h post-injection): 10.8 ± 1.57 % ID/g
Tissue (% ID/g): Urine (1 h post-injection): 160 ± 49.6 % ID/g
tumor-to-background contrast ratio Tumor: Blood (1 h post-injection): 13.4 ± 4.08
tumor-to-background contrast ratio Tumor: Muscle (1 h post-injection): 12.1 ± 4.21
tumor-to-background contrast ratio Tumor: kidney (1 h post-injection): 0.11 ± 0.02
Tissue (% ID/g): Adrenal glands (4 h post-injection): 3.41 ± 0.54 % ID/g
Tissue (% ID/g): Blood (4 h post-injection): 0.31 ± 0.04 % ID/g
Tissue (% ID/g): Bone (4 h post-injection): 0.45 ± 0.53 % ID/g
Tissue (% ID/g): Brain (4 h post-injection): 0.05 ± 0.05 % ID/g
Tissue (% ID/g): Fat (4 h post-injection): 0.56 ± 0.16 % ID/g
Tissue (% ID/g): Heart (4 h post-injection): 1.69 ± 0.13 % ID/g
Tissue (% ID/g): Intestine (4 h post-injection): 0.95 ± 0.08 % ID/g
Tissue (% ID/g): Kidneys (4 h post-injection): 101 ± 13.3 % ID/g
Tissue (% ID/g): Lacrimal (4 h post-injection): 0.02 ± 0.01 % ID/g
Tissue (% ID/g): Liver (4 h post-injection): 1.46 ± 0.17 % ID/g
Tissue (% ID/g): Lungs (4 h post-injection): 3.20 ± 0.41 % ID/g
Tissue (% ID/g): Muscle (4 h post-injection): 0.56 ± 0.15 % ID/g
Tissue (% ID/g): Pancreas (4 h post-injection): 1.15 ± 0.13 % ID/g
Tissue (% ID/g): Salivary (4 h post-injection): 2.18 ± 0.56 % ID/g
Tissue (% ID/g): Seminal (4 h post-injection): 0.57 ± 0.12 % ID/g
Tissue (% ID/g): Spleen (4 h post-injection): 3.22 ± 1.01 % ID/g
Tissue (% ID/g): Stomach (4 h post-injection): 0.37 ± 0.06 % ID/g
Tissue (% ID/g): Tail (4 h post-injection): 1.06 ± 0.60 % ID/g
Tissue (% ID/g): Testes (4 h post-injection): 0.92 ± 0.10 % ID/g
Tissue (% ID/g): Thyroid (4 h post-injection): 2.10 ± 0.19 % ID/g
Tissue (% ID/g): Tumor (4 h post-injection): 18.7±2.96 % ID/g
Tissue (% ID/g): Urine (4 h post-injection): 84.6 ± 39.3 % ID/g
tumor-to-background contrast ratio Tumor: Blood (4 h post-injection): 60.3 ± 4.81
tumor-to-background contrast ratio Tumor: Muscle (4 h post-injection): 34.4 ± 8.39
tumor-to-background contrast ratio Tumor: kidney (4 h post-injection): 0.19 ± 0.02
Tissue (% ID/g): Adrenal glands (24 h post-injection): 0.76 ± 0.10 % ID/g
Tissue (% ID/g): Blood (24 h post-injection): 0.07 ± 0.00 % ID/g
Tissue (% ID/g): Bone (24 h post-injection): 0.07 ± 0.02 % ID/g
Tissue (% ID/g): Brain (24 h post-injection): 0.01 ± 0.00 % ID/g
Tissue (% ID/g): Fat (24 h post-injection): 0.16 ± 0.02 % ID/g
Tissue (% ID/g): Heart (24 h post-injection): 0.41 ± 0.07 % ID/g
Tissue (% ID/g): Intestine (24 h post-injection): 0.30 ± 0.06 % ID/g
Tissue (% ID/g): Kidneys (24 h post-injection): 20.3 ± 6.51 % ID/g
Tissue (% ID/g): Lacrimal (24 h post-injection): 0.00 ± 0.00 % ID/g
Tissue (% ID/g): Liver (24 h post-injection): 0.42 ± 0.08 % ID/g
Tissue (% ID/g): Lungs (24 h post-injection): 0.83 ± 0.12 % ID/g
Tissue (% ID/g): Muscle (24 h post-injection): 0.15 ± 0.03 % ID/g
Tissue (% ID/g): Pancreas (24 h post-injection): 0.26 ± 0.04 % ID/g
